Results as given in article PMC10845965, “Gold(I) ion and the phosphine ligand are necessary for the anti-Toxoplasma gondii activity of auranofin” (Microbiology Spectrum, 2024).
pIC50: −log10 of the molar value. “And” between values parts separate entries of the source, which are not always exact repeats. Equal values may be shown once. “Also recorded” adds a separate entry of the source. Read-outs that look alike come from different tables or passages of the source.

Experiments:
T. gondii in HFF = experiment: Egress assay (LDH release); format: cell-based, Toxoplasma gondii; conditions: 30 hours infection, then 40 min with A23187 5 µM, zaprinast 57 µM or auranofin 5 µM
Procedure: The egress assay was modified from previously published methods to measure lactate dehydrogenase (LDH) content as a function of egress (host membrane damage induced by parasite egress) ([33], [34]). Confluent monolayers of HFF in a 24-well plate were inoculated with 5 × 10^5 parasites (freshly mechanically released by needle and filtered through a 3 µm filter) for 30 hours before each drug treatment in three technical triplicates. These infected HFF monolayers were rinsed with 37°C Ringer’s solution (Ward’s Science) three times and supplied with 5 µM calcium ionophore A23187 (ACROS), 57 µM Zaprinast (Alfa Aesar), 5 µM auranofin (Enzo Life Sciences), or DMSO control (all in 5 µl) for 40 min in 5% CO2 and 37°C. The culture supernatant was collected from wells and centrifuged at 4°C and 500 g for 5 min. The solution was kept at 4°C and assayed immediately for the LDH content. The A490 reading is directly proportional to a known amount of LDH (standard curve) (CytoTox 96 Nonradioactive Cytotoxicity Assay, Promega). Egress induced by each drug is presented as a relative value after subtracting control levels of LDH induced by DMSO alone (the solvent for all drugs included in this assay) from the levels of LDH induced by the drugs. A t-test to determine the statistical difference between the relative egress triggered by auranofin and A23187 or auranofin and Zaprinast from three independent experiments was used.

RH T. gondii = experiment: Plaque assay and IC50 determination; format: cell-based, Toxoplasma gondii; conditions: plaque assay, 5 days; for inhibition of T. gondii growth in vitro: 0–40 µM
Procedure: We measured the inhibition of parasite growth by plaque assay as modified from a previously established method ([27], [28]). Confluent monolayers of HFF in six-well plates were inoculated with 1 × 10^2 parasites of RH T. gondii. Immediately after, each well received D10 containing specified concentrations of each compound. Plates were incubated undisturbed for 5 days at 37°C in a humidified incubator with 5% CO2. On the fifth day, each well was rinsed once with phosphate-buffered saline (PBS), fixed with 4% paraformaldehyde (15 min at room temperature), and stained with crystal violet for 2–3 min. Plaques (visualized as irregular clear areas of cell lysis against the violet background of intact host cells) were enumerated for each well. To generate the inhibition curve, plaque numbers (represented as a percentage of plaques relative to the no drug control) were plotted vs drug concentration. The IC50 value was calculated from the inhibitor vs normalized response curve with variable slope. The results represented the average of three independent IC50 assays ± standard error of the mean.

HFF host cells = experiment: Host cell viability and TD50 determination; format: cell-based, human; conditions: 5 days incubation, tetrazolium assay
Procedure: Confluent monolayers of HFF host cells (approximately 1 × 10^4) plated in clear bottom 96-well plates were treated with twofold dilutions of compounds of interest. After 5 days of incubation, 15 µL of dye solution (tetrazolium salt) was added to each well. The plates were incubated at 37°C for 4 hours; then, the reaction was stopped to solubilize the formazan product (Cell Titer 96 Nonradioactive Cell Proliferation Assay Promega). Absorbance at 570 ʎ (A570) was recorded using a multimode microplate plate reader (Molecular Devices Spectramax i5, SoftMax Pro 7.0.2 Software). The A570 absorbance reading is directly proportional to the number of viable cells. The values are presented as percentages of cell viability relative to the untreated controls (defined as 100% survival) and plotted against the log of compound concentrations. The log (auranofin derivative) vs cell viability curve with variable slope was generated to calculate TD50 values.

[1] = tested on: Leishmania spp. (promastigotes and amastigotes); set-up: method as in PMID 24328400; conditions: cited from earlier work
[2] = tested on: YFP+ RH parasites (T. gondii) invading HFF; experiment: Invasion assay; format: cell-based, Toxoplasma gondii
Procedure: We performed invasion assays with or without pre-treatment of T. gondii tachyzoites with auranofin, as modified from previously described assays ([28][–][31]). We used RH parasites expressing YFP ([32]). First, we determine the best concentration of auranofin to achieve stable host cell morphology and viability (HFF) while maximizing the effect of auranofin in T. gondii by titration of auranofin (doses ranging from 1 to 5 µM). The best auranofin dose fitting our criteria was 3 µM. Therefore, we performed a modified invasion assay using 2.5 × 10^6 parasites freshly lysed YFP+ RH parasites ([29]) that were filtered and centrifuged before each assay as follows: […]
After the 30-min invasion, all host cells were washed with PBS and fixed with 4% paraformaldehyde, blocked with 3% bovine serum albumin (BSA), and then incubated with anti-SAG-1 antibody (DG52) (David Sibley, Washington University in St. Louis) ([4]) for 1 hour, followed by incubation with goat anti-mouse IgG conjugated to Alexa-594 fluorophore (A19069, Thermo Fisher). For quantification, eight randomly selected fields (with a minimum of 300 parasites) were counted for each sample. […] The invasion rate was calculated by dividing the number of intracellular parasites by the total number of parasites counted.

[3] = tested on: YFP+ RH parasites (T. gondii) in HFF; experiment: Replication assay; format: cell-based, Toxoplasma gondii
Procedure: Confluent HFF monolayers were infected with 5 × 10^5 YFP+ RH parasites in coverslips. Following 1-hour incubation at 37°C to allow for invasion, the monolayer was rinsed with PBS, and D10 in DMSO (control) or auranofin containing (2.5 µM) media was added back. Coverslips were then incubated for 24 hours to allow for parasite replication. Coverslips were then fixed in 4% paraformaldehyde and mounted with DAPI-containing mounting media. Parasites were identified as DAPI+/YFP+ under fluorescence microscopy. The number of parasites per parasitophorous vacuole was counted across 10 random fields of view per coverslip. At least 100 parasitophorous vacuoles (PV) per condition were counted from three independent experiments. Results were grouped into the following categories according to the number of parasites per PV: 1, 2, 4, and >4 parasites. A chi-square trend test was used to determine the statistical difference between the PV category of the control and auranofin treatment from three independent experiments.

[4] = tested on: extracellular T. gondii RH parasites; experiment: Parasite size by flow cytometry (forward scatter); format: cell-based, Toxoplasma gondii; conditions: auranofin 2.5 µM
Procedure: (§1) A confluent monolayer of HFF was infected with purified RH parasites (freshly mechanically released by needle and filtered through a 3 µm filter). The monolayer remained undisturbed for 24 hours to allow for invasion and replication. On the day of treatment, extracellular parasites were mechanically released and harvested after differential centrifugation ([35]) at 35 × g for 5 minutes to prevent parasite loss before processing. The supernatant was then collected and centrifuged at 1,350 × g for 10 minutes to pellet the extracellular parasites. Parasites were plated in a 12-well plate (2.7 × 10^7 per well) into 1 mL of D10 in DMSO (control) or auranofin (2.5 µM) containing media and incubated for 24–48 hours at 37°C with 5% CO2 before collection.
Parasite size after treatment with auranofin was determined by flow cytometry (forward scattering). At the end of each incubation time, parasites (1 × 10^5) were resuspended in 1 mL of PBS to prepare them for flow cytometry.

[5] = tested on: extracellular T. gondii RH parasites; experiment: Annexin V assay (phosphatidylserine externalization); format: cell-based, Toxoplasma gondii; conditions: auranofin 2.5 µM, 24 hours; control 11.2 ± 2.937
Procedure: as §1
Given the smaller size of parasites after auranofin treatment, we evaluated whether T. gondii death occurred by apoptosis via Annexin V assays (Invitrogen). After 24 hours of treatment, parasites were collected, washed with PBS, and resuspended in Annexin binding buffer (10 mM HEPES, 140 mM NaCl, and 2.5 mM CaCl2, pH 7.4) at a concentration of 10^6 parasites per mL. One hundred microliters of this parasite suspension was stained with Annexin V-Alexa fluor conjugate before flow cytometry analysis. A t-test was used to determine the statistical difference between control or auranofin treatment groups from three independent experiments.

[6] = HFF infected with RH T. gondii, read-out: IC50 (inhibition of parasite growth)
[7] = Fig 7, unit inferred, read-out: IC50

CCCOc1ccccc1-c1nc2nn[nH]c2c(=O)[nH]1 [Zaprinast, zaprinast]
relative egress level (LDH, normalized to DMSO) (T. gondii in HFF): 0.3272 ± 0.009
relative egress level (LDH, normalized to DMSO) (T. gondii in HFF; listed as zaprinast): 0.2768 ± 0.034

OC[C@H]1O[C@H]([S-])[C@H](O)[C@@H](O)[C@@H]1O.[Au+] [Aurothioglucose, aurothioglucose]
inhibition of T. gondii growth in vitro (RH T. gondii): did not display inhibitory activity
inhibition of T. gondii growth in vitro (RH T. gondii; listed as aurothioglucose): neither aurothioglucose nor aurothiomalate inhibited the growth

O=C(O)CC([S-])C(=O)O.[Au+] (stereo not drawn) [Aurothiomalate, aurothiomalate]
inhibition of T. gondii growth in vitro (RH T. gondii): neither aurothioglucose nor aurothiomalate inhibited the growth; also recorded: did not display inhibitory activity

[Cl][Au].c1ccc(P(c2ccccc2)c2ccccc2)cc1 [Compound 31]
pIC50 (RH T. gondii; [6]): 5.85
TD50 (cytotoxicity in host cells) (HFF host cells): 178 µM
toxicity to host cells compared with auranofin [1]: less toxic to host cells than auranofin and compounds 6, 10, and 39
antiparasitic activity against Leishmania spp. compared with auranofin ([1]; extracellular and intracellular forms): higher IC50 than auranofin

CC(=O)OC[C@H]1O[C@@H]([S-])[C@H](OC(C)=O)[C@@H](OC(C)=O)[C@@H]1OC(C)=O.CCP(CC)CC.[Au+] [Auranofin]
pIC50 (RH T. gondii; [7]): 6.25
TD50 (cytotoxicity in host cells) (HFF host cells): 5.14 µM
invasion rate (T. gondii that successfully invaded host cells) ([2]; parasites pre-treated with auranofin 3 µM for 30 min before invasion, control 35%): 18%
invasion rate (T. gondii that successfully invaded host cells) ([2]; without pre-treatment, auranofin 3 µM during 30 min invasion, control 59%): 60%
host cell monolayer integrity ([3]; HFF monolayer, 24 hours of auranofin treatment): did not show changes in the monolayer integrity
effect on parasite replication (parasites per parasitophorous vacuole) ([3]; auranofin 2.5 µM for 24 hours after 1 hour invasion): did not inhibit parasite replication
relative egress level (LDH, normalized to DMSO) (T. gondii in HFF): 0.2768 ± 0.034
relative egress level (LDH, normalized to DMSO) (T. gondii in HFF; listed as auranofin): 0.2768 ± 0.03435 and 0.3272 ± 0.009
parasite size (FSC-H) ([4]; 24 hours, control 201.2 ± 4.064): 152.7 ± 8.225
parasite size (FSC-H) ([4]; 48 hours, control 169.9 ± 66.25): 123.5 ± 7.339
phosphatidylserine externalization (PS) by Annexin V assay [5]: 29.16 ± 3.615 relative fluorescent units

[Cl][Au][PH](Cc1ccccc1)(c1ccccc1)c1ccccc1 [Compound 6]
pIC50 (RH T. gondii; [7]): 6.35
pIC50 (RH T. gondii; [6]): 6.34
TD50 (cytotoxicity in host cells) (HFF host cells): 4.87 µM

CNc1ccc2oc(C[C@H]3O[C@@]4(CC[C@H]3C)O[C@H]([C@H](C)C(=O)c3ccc[nH]3)[C@H](C)C[C@H]4C)nc2c1C(=O)O [A23187]
relative egress level (LDH, normalized to DMSO) (T. gondii in HFF): 0.4533 ± 0.01148
